Assay [1] is described as follows: inhibitors of SNCA 5'UTR-driven reporter translation, confirmation, H4 neuroglioma cells, luminescence (AID 1988). Type of assay: functional, cell-based.
Assay [2] is described as follows: inhibitors of firefly luciferase expression or activity, dose response, H4 neuroglioma cells, luminescence (AID 1990). The assay is classed as functional, cell-based.
The nature of a further assay: cells. The assay is classed as functional.
The target in assay [3] is Cyclin-dependent kinase 5/CDK5 activator 1 (Homo sapiens, UniProt Q00535). Put plainly: CDK5/p35 kinase inhibitors, dose response, biochemical, cherry-picked samples, set 2 (AID 504545).
Assay [4] can be described thus: inhibition of ADP-Glo detection reagents, dose response, artefact control for CDK5 inhibitor project, biochemical, luminescence, cherry-picked samples, set 2 (AID 504546). The assay is classed as functional.
The test system of another assay is HEK293. Put plainly: inhibitors of LMP1-driven NF-kB reporter, dose response, cell-based, HEK293, luciferase, cherry-pick (AID 588343). Type of assay: functional. Conditions: Homo sapiens.
Assay [5] in a line: Luminescence Cell-Based Dose Response HTS to Identify Inhibitors of 5'UTR Stem-Loop Driven Prion Protein mRNA Translation in H4 Neuroglioblastoma Cells. [Related pubchem assays: 1827 (Project Summary), 1813 (Primary HTS)]. The assay is classed as functional.
Assay [6] can be described thus: Luminescence Cell-Based Dose Confirmation HTS to Identify Inhibitors of Platelet Dense Granule Release. [Related pubchem assays: 1663 (Primary HTS), 1678 (Summary of Project)]. The assay is classed as functional.
In assay [7] the target is Luciferin 4-monooxygenase (Photinus pyralis, UniProt P08659). The experiment in a line: firefly luciferase enzyme inhibitors, dose response, biochemical, luminescence (AID 1891).
Assay [8] in a line: HepG2 cell cytotoxicity, dose response, cytotoxicity control for Shn3 inhibitor project, CellTiter-Glo, cherry-picked (AID 624134). Type of assay: functional, cell-based. (Cellular ATP, detected with luciferase, serves as a proxy for viable cell number.)
The nature of assay [9]: nonselective inhibitors of cellular cAMP signaling, dose response, counter-screen for MC4R biased antagonist project, cell-based, TR-FRET cAMP detection (AID 602305).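 Also: U2OS cells stimulated with forskolin near its EC80 as the cAMP inducer; potency is for inhibition of forskolin-stimulated cAMP signaling.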 The assay is classed as functional. On the technique in general: A counterscreen serves to expose hits that act by an unwanted route or on another target.
In a further assay the target is Hexokinase HKDC1 (Homo sapiens, UniProt Q2TB90). The experiment in a line: HKDC1 hexokinase inhibitors, dose response, biochemical, W721R variant (AID 504729). The assay is classed as functional.
Another assay addresses T1, Estrogen receptor (Homo sapiens, UniProt P03372).
T1 sequence (P03372 whole entry): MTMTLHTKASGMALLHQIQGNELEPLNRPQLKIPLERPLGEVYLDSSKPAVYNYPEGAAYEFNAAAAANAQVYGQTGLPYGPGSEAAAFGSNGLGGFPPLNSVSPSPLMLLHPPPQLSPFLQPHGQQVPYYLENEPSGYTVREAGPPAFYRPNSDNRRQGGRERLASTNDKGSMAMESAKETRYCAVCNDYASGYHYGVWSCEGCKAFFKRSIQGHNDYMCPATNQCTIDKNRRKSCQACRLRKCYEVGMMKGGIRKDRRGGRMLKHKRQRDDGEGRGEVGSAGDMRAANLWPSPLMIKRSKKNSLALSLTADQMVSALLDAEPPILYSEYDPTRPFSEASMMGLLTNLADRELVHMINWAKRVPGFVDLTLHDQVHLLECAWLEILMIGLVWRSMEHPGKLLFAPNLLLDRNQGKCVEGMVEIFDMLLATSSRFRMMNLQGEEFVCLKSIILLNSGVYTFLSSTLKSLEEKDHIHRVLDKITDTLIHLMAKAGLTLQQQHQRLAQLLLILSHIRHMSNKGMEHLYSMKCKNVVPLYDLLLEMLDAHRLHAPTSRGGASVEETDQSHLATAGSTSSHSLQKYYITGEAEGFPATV
The experiment in a line: potentiators of ERα–SRC-1 coactivator binding, dose response, biochemical, TR-FRET, ERα LBD (AID 737). A general note: Time-resolved FRET reads energy transfer from a long-lived donor to a nearby acceptor.

Assay [10] can be described thus: Shn3 3'UTR reporter inhibitors, dose response, cell-based, Clone20 osteoblasts, firefly luciferase, cherry-picked (AID 624132).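 Also: firefly luciferase luminescence from reporter carrying the Shn3 3'UTR in osteoblasts.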 The assay is classed as functional.
The nature of assay [11]: HepG2 cell cytotoxicity, dose response, cytotoxicity control for non-replicating M. tuberculosis project (AID 489018). The assay is classed as functional. As to conditions: Mycobacterium tuberculosis.
Assay [12] can be described thus: cytotoxicity in KRAS-transformed pancreatic duct cells, primary screen, cell-based, fluorescence, HTS (AID 431). The assay is classed as functional. As to conditions: Homo sapiens.
In assay [13] the target is T2, Melanocortin receptor 4 (Homo sapiens, UniProt P32245). Put plainly: MC4R antagonist potency on cAMP, dose response, cell-based, TR-FRET, biased antagonists (AID 602298).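 Also: antagonist potency against agonist-stimulated cAMP production.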 The assay is classed as functional.
Assay [14] in a line: cytotoxicity in HPDE-C7 cells, cell-based, fluorescence, HTS (AID 430). The assay is classed as functional. As to conditions: Homo sapiens.
Assay [15] in a line: THP-1 cell cytotoxicity, dose response, cytotoxicity control for non-replicating M. tuberculosis project (AID 489025). The assay is classed as functional.
Assay [16] deals with T3, Polyadenylate-binding protein 1 (Homo sapiens, UniProt P11940). The experiment in a line: PABP1 MLLE–PAM2 binding inhibitor potency, dose response, biochemical, fluorescence polarization, FITC-PAM2 peptide (AID 602259). The assay is classed as functional. As to conditions: read-out: IC50_Mean.
The next assay deals with Protein Rev (Human immunodeficiency virus type 1 group M subtype B (isolate HXB2)(HIV-1), UniProt P04618). Put plainly: inhibitors of Rev binding to RRE RNA, dose response, biochemical, fluorescence polarization, HIV-1 (AID 434976). Set-up: species or system Human immunodeficiency virus 1.
Assay [17] deals with Female germline-specific tumor suppressor gld-1 (Caenorhabditis elegans, UniProt Q17339). Put plainly: inhibitors of GLD-1 binding to TGE RNA, dose response, biochemical, fluorescence polarization, C. elegans (AID 2802).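 Also: fluorescence polarization of labeled TGE RNA bound by purified gld-1 protein.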
The target in assay [18] is T3, Polyadenylate-binding protein 1. Put plainly: PABP1 MLLE–PAM2 interaction inhibitors, dose response, miRNA deadenylation inhibitor project, biochemical, fluorescence polarization, Cy5-PAM2 peptide, secondary (AID 602260). As to conditions: read-out: IC50_Mean. The assay is classed as functional.
For assay [19], the target named is Endoplasmic reticulum aminopeptidase 1 (Homo sapiens, UniProt Q9NZ08). The experiment in a line: ERAP1 aminopeptidase inhibitors, dose response, biochemical, cherry-pick, set 2, plate reader (AID 743314).
Assay [20] has as its target T3, Polyadenylate-binding protein 1. The experiment in a line: PABP inhibition in translation initiation, SAR follow-up (AID 435018). Type of assay: functional.
Assay [21] addresses Eukaryotic translation initiation factor 4H (Homo sapiens, UniProt Q15056). Put plainly: eIF4H inhibition in translation initiation, SAR follow-up (AID 435011). Type of assay: functional.
For assay [22], the target named is T4, Delta-type opioid receptor (Homo sapiens, UniProt P41143). The experiment in a line: HTS Image-Based Screen for Agonists of the DOR Receptor. [Related pubchem assays (depositor defined):AID1777, AID1786, AID2133]. Type of assay: functional.
Assay [23] addresses T5, Kappa-type opioid receptor (Homo sapiens, UniProt P41145). Type of assay: functional.
In assay [24] the target is T2, Melanocortin receptor 4. Type of assay: functional, cell-based.
The target in assay [25] is T5, Kappa-type opioid receptor. The assay is classed as functional. This is another data set of the same source.
Assay [26] addresses T4, Delta-type opioid receptor. Put plainly: HTS Image-Based Screen for Antagonists of the DOR Receptor. [Related pubchem assays (depositor defined):AID1777, AID1785, AID1786, AID2133]. The assay is classed as functional.
The next assay concerns the target Mu-type opioid receptor (Homo sapiens, UniProt P35372). Put plainly: HTS Image-Based Screen for Agonists of the MOR Receptor. [Related pubchem assays (depositor defined):AID1777, AID1785, AID1786, AID2133]. Type of assay: functional.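 Also: imaging of beta-arrestin GFP recruitment into spots after receptor activation.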

SMILES strings stand for the structures. Activity calls are given as the source filed them.

The values below come from ChEMBL document CHEMBL1201862, “PubChem BioAssay data set” (2004).

One may read the EC50 as the midpoint of the concentration-response curve. Broadly, the AC50 is the concentration giving half of the maximal activity seen. In general, CC50 refers to the concentration that lowers cell viability or growth by half.

T3 sequence (P11940 whole entry): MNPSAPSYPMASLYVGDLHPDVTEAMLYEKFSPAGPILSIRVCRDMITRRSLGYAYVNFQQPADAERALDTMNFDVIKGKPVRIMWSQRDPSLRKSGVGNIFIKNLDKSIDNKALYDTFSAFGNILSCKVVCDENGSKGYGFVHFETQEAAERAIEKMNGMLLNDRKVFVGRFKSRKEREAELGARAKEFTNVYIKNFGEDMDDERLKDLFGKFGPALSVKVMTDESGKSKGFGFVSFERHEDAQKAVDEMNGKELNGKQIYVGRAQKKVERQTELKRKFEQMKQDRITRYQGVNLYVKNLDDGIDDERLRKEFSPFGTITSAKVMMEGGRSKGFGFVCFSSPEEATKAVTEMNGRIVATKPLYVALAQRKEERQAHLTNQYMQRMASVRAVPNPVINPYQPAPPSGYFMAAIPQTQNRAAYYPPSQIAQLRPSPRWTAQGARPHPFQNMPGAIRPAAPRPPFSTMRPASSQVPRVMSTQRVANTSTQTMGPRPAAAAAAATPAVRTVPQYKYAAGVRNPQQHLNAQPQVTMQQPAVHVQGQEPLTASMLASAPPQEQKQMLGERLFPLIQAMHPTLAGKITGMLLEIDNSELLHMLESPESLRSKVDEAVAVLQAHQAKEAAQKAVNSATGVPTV
T2 sequence (P32245 whole entry): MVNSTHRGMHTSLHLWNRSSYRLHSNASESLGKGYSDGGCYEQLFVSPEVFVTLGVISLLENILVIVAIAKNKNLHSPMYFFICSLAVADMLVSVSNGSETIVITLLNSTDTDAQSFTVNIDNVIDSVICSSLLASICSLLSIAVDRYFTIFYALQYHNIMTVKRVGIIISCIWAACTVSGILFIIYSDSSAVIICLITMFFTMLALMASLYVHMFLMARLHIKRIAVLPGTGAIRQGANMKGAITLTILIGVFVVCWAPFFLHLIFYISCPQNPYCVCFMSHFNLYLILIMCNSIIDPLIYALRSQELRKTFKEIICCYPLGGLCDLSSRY
T4 sequence (P41143 whole entry): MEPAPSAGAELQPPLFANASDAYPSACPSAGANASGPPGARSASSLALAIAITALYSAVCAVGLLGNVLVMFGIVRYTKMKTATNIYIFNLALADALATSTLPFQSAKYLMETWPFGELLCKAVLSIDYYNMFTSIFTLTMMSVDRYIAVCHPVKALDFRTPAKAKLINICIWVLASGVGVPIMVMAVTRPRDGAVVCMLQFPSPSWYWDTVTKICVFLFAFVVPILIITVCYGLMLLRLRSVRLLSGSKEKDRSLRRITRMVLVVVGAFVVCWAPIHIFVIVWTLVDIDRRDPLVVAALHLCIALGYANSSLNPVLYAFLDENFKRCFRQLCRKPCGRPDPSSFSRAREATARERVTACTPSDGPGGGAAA
T5 sequence (P41145 whole entry): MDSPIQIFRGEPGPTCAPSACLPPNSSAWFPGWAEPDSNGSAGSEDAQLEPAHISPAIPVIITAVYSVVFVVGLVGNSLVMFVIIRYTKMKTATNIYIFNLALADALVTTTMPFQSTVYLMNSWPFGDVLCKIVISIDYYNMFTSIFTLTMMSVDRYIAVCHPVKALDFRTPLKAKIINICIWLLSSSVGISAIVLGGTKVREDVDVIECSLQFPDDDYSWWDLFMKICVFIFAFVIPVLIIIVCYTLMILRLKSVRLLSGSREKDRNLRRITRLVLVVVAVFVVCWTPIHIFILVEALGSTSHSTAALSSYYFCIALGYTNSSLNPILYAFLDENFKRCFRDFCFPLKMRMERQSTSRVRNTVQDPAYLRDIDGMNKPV
Sequence of Protein Rev (P04618 whole entry): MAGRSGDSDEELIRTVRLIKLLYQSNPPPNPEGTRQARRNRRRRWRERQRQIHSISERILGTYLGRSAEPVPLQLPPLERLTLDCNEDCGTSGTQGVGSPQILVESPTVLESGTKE
Sequence of Female germline-specific tumor suppressor gld-1 (Q17339 whole entry): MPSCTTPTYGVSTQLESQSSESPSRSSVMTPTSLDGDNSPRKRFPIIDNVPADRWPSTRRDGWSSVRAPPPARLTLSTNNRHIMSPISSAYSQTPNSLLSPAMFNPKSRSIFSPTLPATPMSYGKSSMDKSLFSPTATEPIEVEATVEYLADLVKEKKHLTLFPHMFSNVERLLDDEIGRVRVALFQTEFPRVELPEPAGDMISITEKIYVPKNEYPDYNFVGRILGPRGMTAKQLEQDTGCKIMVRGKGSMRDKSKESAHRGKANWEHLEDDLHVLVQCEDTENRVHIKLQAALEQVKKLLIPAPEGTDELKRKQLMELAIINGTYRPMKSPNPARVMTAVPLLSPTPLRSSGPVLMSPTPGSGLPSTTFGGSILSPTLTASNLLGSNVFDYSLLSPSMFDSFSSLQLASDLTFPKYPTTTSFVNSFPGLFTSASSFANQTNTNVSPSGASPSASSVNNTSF
Sequence of Cyclin-dependent kinase 5/CDK5 activator 1 (Q00535 whole entry): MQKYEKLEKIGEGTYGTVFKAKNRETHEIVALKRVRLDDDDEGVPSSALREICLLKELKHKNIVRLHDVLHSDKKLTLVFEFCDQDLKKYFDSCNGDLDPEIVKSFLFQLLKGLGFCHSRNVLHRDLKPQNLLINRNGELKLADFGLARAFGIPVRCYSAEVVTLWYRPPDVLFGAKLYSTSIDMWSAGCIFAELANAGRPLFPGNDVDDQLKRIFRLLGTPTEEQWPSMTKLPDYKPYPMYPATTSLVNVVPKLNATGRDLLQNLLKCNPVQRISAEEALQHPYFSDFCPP
Sequence of Cyclin-dependent kinase 5/CDK5 activator 1 (Q15078 whole entry, further chain): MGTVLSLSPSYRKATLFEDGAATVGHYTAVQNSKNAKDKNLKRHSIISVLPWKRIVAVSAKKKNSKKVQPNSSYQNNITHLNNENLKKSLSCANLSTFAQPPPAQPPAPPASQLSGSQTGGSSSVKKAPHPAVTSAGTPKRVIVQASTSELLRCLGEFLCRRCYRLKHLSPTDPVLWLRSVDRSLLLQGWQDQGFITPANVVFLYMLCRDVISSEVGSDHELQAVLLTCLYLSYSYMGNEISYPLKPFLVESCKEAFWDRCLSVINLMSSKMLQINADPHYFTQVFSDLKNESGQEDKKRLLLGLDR
Sequence of Hexokinase HKDC1 (Q2TB90 whole entry): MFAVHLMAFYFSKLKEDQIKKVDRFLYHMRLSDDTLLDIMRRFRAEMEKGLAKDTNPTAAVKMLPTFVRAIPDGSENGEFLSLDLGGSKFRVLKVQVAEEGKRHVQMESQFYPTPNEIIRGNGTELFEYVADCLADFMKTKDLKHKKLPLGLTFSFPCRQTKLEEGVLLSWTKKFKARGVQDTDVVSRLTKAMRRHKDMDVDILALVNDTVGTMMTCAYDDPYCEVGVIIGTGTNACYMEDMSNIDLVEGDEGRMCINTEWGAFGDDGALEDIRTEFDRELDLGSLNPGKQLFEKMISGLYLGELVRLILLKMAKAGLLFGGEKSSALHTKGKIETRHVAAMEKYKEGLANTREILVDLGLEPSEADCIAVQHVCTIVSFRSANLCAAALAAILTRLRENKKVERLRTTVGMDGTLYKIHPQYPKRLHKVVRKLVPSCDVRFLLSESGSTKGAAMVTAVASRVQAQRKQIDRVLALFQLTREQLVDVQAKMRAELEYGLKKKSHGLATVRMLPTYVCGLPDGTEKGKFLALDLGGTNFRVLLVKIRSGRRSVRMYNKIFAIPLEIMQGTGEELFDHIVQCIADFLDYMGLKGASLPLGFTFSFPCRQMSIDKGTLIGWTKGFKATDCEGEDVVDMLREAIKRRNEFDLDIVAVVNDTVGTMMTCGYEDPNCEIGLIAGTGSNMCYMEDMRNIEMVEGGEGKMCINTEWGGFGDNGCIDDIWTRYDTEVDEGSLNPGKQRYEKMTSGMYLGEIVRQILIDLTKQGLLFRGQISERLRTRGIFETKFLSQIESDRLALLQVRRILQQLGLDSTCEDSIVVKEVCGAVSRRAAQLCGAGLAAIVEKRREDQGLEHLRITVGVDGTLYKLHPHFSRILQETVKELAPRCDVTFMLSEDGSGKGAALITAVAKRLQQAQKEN
Sequence of Luciferin 4-monooxygenase (P08659 whole entry): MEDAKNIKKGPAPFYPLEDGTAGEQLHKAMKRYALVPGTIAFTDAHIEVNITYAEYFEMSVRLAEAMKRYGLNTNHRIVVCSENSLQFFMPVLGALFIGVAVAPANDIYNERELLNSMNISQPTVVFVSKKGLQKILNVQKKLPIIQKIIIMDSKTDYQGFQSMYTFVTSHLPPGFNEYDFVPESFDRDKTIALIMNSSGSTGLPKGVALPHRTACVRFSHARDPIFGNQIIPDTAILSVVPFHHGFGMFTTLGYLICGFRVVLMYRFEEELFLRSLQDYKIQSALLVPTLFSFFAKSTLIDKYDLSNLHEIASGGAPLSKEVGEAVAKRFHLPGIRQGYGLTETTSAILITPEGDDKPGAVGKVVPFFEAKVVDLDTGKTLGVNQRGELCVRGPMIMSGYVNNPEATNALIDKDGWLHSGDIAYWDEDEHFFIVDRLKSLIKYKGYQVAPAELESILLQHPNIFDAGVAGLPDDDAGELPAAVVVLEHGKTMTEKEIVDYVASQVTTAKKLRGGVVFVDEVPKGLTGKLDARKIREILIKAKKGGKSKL

For `CCOc1ccc(OCC(=O)Nc2nccs2)cc1`, the EC50 in [1] is 6.85 µM (active); in assay [2], 8.12 µM (active); in assay [5] it was 9.78 µM (active); in [6], 2.37 µM (active); in assay [7], 5.61 µM (active). Moreover, the IC50 in “cells” was 20.2 µM (active). Besides, the AC50 was 21.2 µM (active) in assay [3], 31.3 µM (active) in assay [4] and 2.74 µM (active) with HEK293.
On to `CCN(CC)c1ccc2c(c1)oc(=O)c1c(Cl)cc(=O)oc12`, for which the results for the half-maximal activity concentration (AC50) in assay [8] and in [10] were 8.09 µM (active) and 2.22 µM (active), respectively. The IC50 in assay [9] was > 64.6 µM (inactive); at Hexokinase HKDC1, 22.4 µM (inactive); in “cells”, 14.6 µM (active); at Melanocortin receptor 4 [13], > 64.6 µM (inactive). In addition, the EC50 is 14.6 µM (active) at Estrogen receptor, 12.1 µM (active) in assay [12] and 14.2 µM (active) in assay [14]. Besides, the figures for the CC50 in assay [11] and in assay [15] were 11.7 µM (active) and > 40 µM (active), respectively.
Turning to `Cc1c(O)ccc2cc(S(=O)(=O)c3ccccc3)c(=O)oc12`, the IC50 in assay [16] was 46.7 µM (inactive); at Protein Rev it was 14.2 µM (not active); in [17] it was 4.72 µM (active); in assay [18], > 66 µM (inactive). Besides, the half-maximal activity concentration (AC50) in [19] is 3.32 µM (active).
As to `COc1ccc(OC)c([N+]2=C3SCCCN3C(O)(c3cccs3)C2)c1` (stereo not drawn), the IC50 in assay [20] and in assay [21] was > 100 µM (inactive) in each case.
With `Cc1ccccc1NC(=O)c1ccc(COc2ccc3c(C)cc(=O)oc3c2)cc1`, the EC50 in assay [22] was > 32 µM (inactive); in assay [23], over 35 µM; on Melanocortin receptor 4 [24], > 89.3 µM (inactive); in [25], 18.1 µM; at Mu-type opioid receptor, > 32 µM (inactive). In addition, in assay [26], the IC50 is > 32 µM (inactive).
